Assay results reported in patent US20220362275A1, “Method and Compositions for Treating Glioblastoma” (PHOENIX BIOTECHNOLOGY, INC., priority 2019, published 2022).
“Also recorded” adds a separate entry of the source. Read-outs that look alike come from different tables or passages of the source.

Columns and labels:
[1] = cited from earlier work
[2] = tested on: GBM; details: cited from earlier work
[3] = tested on: GBM9 stem cell line; assay: High throughput growth/viability assay (Cell Titer Glo-3D), GBM9; format: cell-based; details: FIG. 17E
Procedure: (§1) A total of 500 GBM9 cells or 1,000 GS28 cells per well suspended in 50 ul of media are seeded into Greiner Black 384-well plates (Cat #781091) using Multidrop Combi liquid dispenser (ThermoFisher).
(§2) The cells are allowed to recover and form a monolayer overnight at 37 C in a humidified chamber with 5% CO2.
(§3) After recovery, 50 nl of each drug are transferred into well using an Echo 550 acoustic dispensing platform (Labcyte).
(§4) In the combination screen, two or three drugs are tested with a fixed volume of DMSO ([…]) and two biological replicates. Each assay plate contains a fixed concentration of drug in addition to a negative control (0.1% DMSO), a positive control (10 uM Doxorubicin), and an 8-point dose response curve of the positive controls. Each well image is taken using the ImageXpress Micro Conforcal High Content Imaging System (MolecularDevices) everyday four times.
(§5) After 72 hr incubation in the presence of drug, plates are aspirated for left 25 ul and then, 25 ul of Cell Titer Glo-3D (Promega) are added and incubated for 20 minutes. Assay plates are read on the Synergy Neo2 Hybrid Multi-Mode Microplate Reader (BioTek).

[4] = tested on: GS28 stem cell line; assay: High throughput growth/viability assay (Cell Titer Glo-3D), GS28; format: cell-based; details: FIG. 17D
Procedure: as §1, §2, §3, §4, §5

[5] = Oral bioavailability anticipated from human clinical data; details: in vivo, based on human clinical data, read-out: part of an administered dose orally bioavailable
[6] = tested on: GBM; details: addition to standard treatment; cited from earlier work
[7] = tested on: caspase 3, 8 and 9 in human GBM U87MG, U251 and T98 cells; assay: Caspase 3, 8 and 9 enzymatic activity (chromogenic substrates); format: cell-based; details: pan-caspase inhibitor added
Procedure: For cell cycle analysis, cells (2.5×10^6) grown in 100-mm dishes were treated with PBI-05204 (0.5-2.5 μg/ml) for 24 hr. Cells were subjected to trypsinization and centrifugation, and the pellets were suspended and washed in 1× phosphate-buffered saline solution (PBS) and were fixed overnight in 70% ethanol at 4° C. The cells were then washed with 1×PBS and were suspended in PBTB staining solution containing PBS, 0.5% bovine serum albumin (BSA), 0.005% Tween-20, propidium iodide (10 μg/ml) and DNase-free RNase (1 μg/ml). Cells were incubated in the dark for 30 min at 37° C. before fluorescence-activated cell-sorting (FACS) analysis using a BD FACS Caliber flow cytometer (BD Biosciences, San Jose, Calif.). The percentage of cells in each phase of the cell cycle was estimated from the DNA histogram content. Apoptosis was evaluated by APOSTRAND™ ELISA apoptosis detection kit (3V Chimica S.r.l. Rome, Italy) and by caspase-specific chromogenic substrates at 450 nm in an ELISA plate reader such as Ac-DEVD-pNA (caspase-3), Ac-IETD-pNA (caspase 8) and Ac-LEHD-pNA (caspase 9) purchased from Kaneka Eurogentec SA (Seraing, Belgium).

[8] = all concentrations ranging from 1×10^−4.5 to 1×10^−7 M

Compound: Cn1nnc2c(C(N)=O)ncn2c1=O [TMZ, temozolomide]
- entry into the cerebrospinal fluid ([1]; in vivo): readily enters
- pharmacokinetics ([1]; in vivo): linear
- bioavailability ([1]; oral): excellent
- grade ≥3 toxicity ([2]; ddTMZ arm): 53%
- grade ≥3 toxicity ([2]; sdTMZ arm): 34%

Compound: C[C@H]1[C@H](C)CC[C@]2(C(=O)O)CC[C@]3(C)C(=CC[C@@H]4[C@@]5(C)CC[C@H](O)C(C)(C)[C@@H]5CC[C@]43C)[C@H]12 [Ursolic acid, ursolic acid]
- activity at concentrations below about 10 microM [3]: little to no activity
- activity at concentrations below about 5.6 microM [4]: little to no activity

Compound: CO[C@H]1C[C@H](O[C@H]2CC[C@@]3(C)[C@H](CC[C@@H]4[C@@H]3CC[C@]3(C)[C@@H](C5=CC(=O)OC5)[C@@H](OC(C)=O)C[C@]43O)C2)O[C@@H](C)[C@@H]1O [oleandrin]
- bioavailability [5]: 50 to 75%

Compound: CC1(C)CC[C@]2(C(=O)O)CC[C@]3(C)C(=CC[C@@H]4[C@@]5(C)CC[C@H](O)C(C)(C)[C@@H]5CC[C@]43C)[C@@H]2C1 [oleanolic acid]
- activity (inhibition of growth of GBM stem cells) [3, 8]: very poor activity; also recorded: little to no activity
- activity (inhibition of growth of GBM stem cells) [4, 8]: very poor activity

Compound: bevacizumab
- overall survival (OS) [6]: no increase
- progression-free survival (PFS) [6]: improved

Compound: z-VAD-fmk
- PBI-05204 induced caspase 3 activity [7]: largely inhibited
